Reference: US20210047324A1 (Aptinyx Inc., priority 2018, published 2021)

Tests used:
[1] = Microsomal stability (Rat); assay type: in vitro ADME; details: after 60 minutes
Description: (§1) Microsomal stability of disclosed compounds was investigated. The following table indicates the percent of compound remaining after 60 minutes.

[2] = Microsomal stability (Human); assay type: in vitro ADME; details: after 60 minutes
Description: as §1

NMDAR2D [3] = molecular target: T1, NMDAR2D (Homo sapiens, UniProt O15399+Q05586); test: NMDAR agonist assay, [3H]MK-801 binding, NMDAR2D expressing HEK cell membranes; assay type: biochemical; details: 50 μM glutamate; read-out: NMDAR2D B: log EC50 (converted)
T1 construct: expressed in transfected cells; host or cells: HEK cells (membrane extract)
Description: (§2) Assays were conducted as described by Moskal et al., “GLYX-13: a monoclonal antibody-derived peptide that acts as an N-methyl-D-aspartate receptor modulator,” Neuropharmacology, 49, 1077-87, 2005. These studies were designed to determine if the test compounds act to facilitate NMDAR activation in NMDAR2A, NMDAR2B, NMDAR2C or NMDAR2D expressing HEK cell membranes as measured by increases in [^3H]MK-801 binding.
(§3) In the assay, 300 μg of NMDAR expressing HEK cell membrane extract protein was preincubated for 15 minutes at […] in the presence of saturating concentrations of glutamate (50 μM) and varying concentrations of test compound (1×10^−15M-1×10^−7M), or 1 mM glycine. Following the addition of 0.3 μCi of [3H]MK-801 (22.5 Ci/mmol), reactions were again incubated for 15 minutes at 25° C. (nonequilibrium conditions). Bound and free [3H]MK-801 were separated via rapid filtration using a Brandel apparatus.
(§4) In analyzing the data, the DPM (disintegrations per minute) of [3H]MK-801 remaining on the filter were measured for each concentration of test compound or for 1 mM glycine. The DPM values for each concentration of a ligand (N=2) were averaged. The baseline value was determined from the best fit curve of the DPM values modeled using the GraphPad program and the log(agonist) vs. response (three parameters) algorithm was then subtracted from all points in the dataset. The % maximal [^3H]MK-801 binding was then calculated relative to that of 1 mM glycine: all baseline subtracted DPM values were divided by the average value for 1 mM glycine. The EC50 and % maximal activity were then obtained from the best fit curve of the % maximal [3H]MK-801 binding data modelled using the GraphPad program and the log(agonist) vs. response (three parameters) algorithm.
(§5) The tables below summarize the results for the wild type […] NMDAR2A, NMDAR2B, NMDAR2C, and NMDAR2D, and whether the compound is not an agonist (−), is an agonist (+), or is a strong agonist (++), where column A is based on the % maximal [3H]MK-801 binding relative to 1 mM glycine (−=0; <100%=+; and >100%=++); and column B is based on log EC50 values (0=−; ≥1×10^−9 M (e.g., −8)=+; and <1×10^−9 M (e.g., −10)=++).

NMDAR2D [4] = molecular target: T2, NMDAR2D (Homo sapiens, UniProt O15399); test: as above; assay type: biochemical; details: 50 μM glutamate; relative to 1 mM glycine
T2 construct: expressed in transfected cells; host or cells: HEK cells (membrane extract)
Description: as §2, §3, §4, §5

Plasma stability (Human) = assay type: in vitro ADME; details: after 60 minutes
Description: (§6) Plasma stability of disclosed compounds was investigated. The following table indicates the percent of compound remaining after 60 minutes.

NMDAR2A = molecular target: T3, NMDAR2A (Homo sapiens, UniProt Q12879); test: NMDAR agonist assay, [3H]MK-801 binding, NMDAR2A expressing HEK cell membranes; assay type: biochemical; design: key to NMDAR2A B: log EC50: 0=−; ≥1×10^−9 M (e.g., −8)=+; <1×10^−9 M (e.g., −10)=++; details: 50 μM glutamate
T3 construct: expressed in transfected cells; host or cells: HEK cells (membrane extract)
T3 sequence (Q12879 23-1464, species assumed, other chains not shown): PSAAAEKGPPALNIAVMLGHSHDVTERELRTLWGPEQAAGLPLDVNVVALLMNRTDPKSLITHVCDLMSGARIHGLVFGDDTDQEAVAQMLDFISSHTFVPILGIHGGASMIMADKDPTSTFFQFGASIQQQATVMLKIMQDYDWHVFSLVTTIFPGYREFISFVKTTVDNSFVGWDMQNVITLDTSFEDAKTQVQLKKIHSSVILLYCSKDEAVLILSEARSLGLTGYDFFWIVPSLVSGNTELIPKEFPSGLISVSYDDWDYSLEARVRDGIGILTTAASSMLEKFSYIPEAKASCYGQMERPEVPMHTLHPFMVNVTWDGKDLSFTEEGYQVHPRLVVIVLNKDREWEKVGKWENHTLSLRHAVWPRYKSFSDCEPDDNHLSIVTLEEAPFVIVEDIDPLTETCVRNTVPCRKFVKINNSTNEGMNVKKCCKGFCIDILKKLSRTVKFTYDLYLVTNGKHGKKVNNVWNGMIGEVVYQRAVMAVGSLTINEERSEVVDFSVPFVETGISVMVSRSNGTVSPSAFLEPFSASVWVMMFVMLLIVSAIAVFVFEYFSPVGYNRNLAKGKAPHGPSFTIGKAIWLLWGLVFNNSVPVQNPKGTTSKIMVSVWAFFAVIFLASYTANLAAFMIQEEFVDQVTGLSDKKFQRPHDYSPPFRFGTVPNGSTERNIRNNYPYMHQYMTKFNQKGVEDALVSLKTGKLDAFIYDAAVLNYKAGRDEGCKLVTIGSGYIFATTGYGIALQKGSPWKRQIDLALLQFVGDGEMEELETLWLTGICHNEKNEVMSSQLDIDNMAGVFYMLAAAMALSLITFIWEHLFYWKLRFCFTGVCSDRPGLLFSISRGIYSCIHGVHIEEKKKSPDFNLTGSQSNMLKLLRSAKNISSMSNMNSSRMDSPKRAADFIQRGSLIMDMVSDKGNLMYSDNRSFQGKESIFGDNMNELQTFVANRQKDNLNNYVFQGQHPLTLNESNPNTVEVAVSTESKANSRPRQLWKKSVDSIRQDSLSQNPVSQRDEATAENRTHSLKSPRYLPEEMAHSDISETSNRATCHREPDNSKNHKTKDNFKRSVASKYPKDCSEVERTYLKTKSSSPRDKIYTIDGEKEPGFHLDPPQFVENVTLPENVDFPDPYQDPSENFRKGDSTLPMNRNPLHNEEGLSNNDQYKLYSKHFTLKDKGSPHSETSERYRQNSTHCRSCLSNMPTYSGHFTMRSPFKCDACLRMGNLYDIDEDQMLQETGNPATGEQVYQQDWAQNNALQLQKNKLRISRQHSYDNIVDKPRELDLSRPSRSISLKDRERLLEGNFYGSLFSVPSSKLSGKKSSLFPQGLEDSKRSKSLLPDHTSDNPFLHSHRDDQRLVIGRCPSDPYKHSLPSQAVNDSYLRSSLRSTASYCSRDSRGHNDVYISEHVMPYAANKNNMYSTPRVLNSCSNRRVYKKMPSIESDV
In short: (§7)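 Membranes from HEK cells (300 μg protein) preincubated 15 min with 50 μM glutamate plus compound (1×10^−15–1×10^−7 M) or 1 mM glycine, then with 0.3 μCi [3H]MK-801 for 15 min at 25° C. (nonequilibrium); filter-bound DPM, baseline-subtracted, expressed as % of 1 mM glycine; EC50 and % maximum from three-parameter fit.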

[5] = IV pharmacokinetics in Sprague Dawley rats; assay type: in vivo; details: Sprague-Dawley, rat, in vivo, iv, 2 mg/kg, normal saline; for Cmax: read-out: Cmax; for Vd: read-out: Vss
Description: Sprague Dawley rats were dosed intravenously using a normal saline formulation containing 2 mg/kg of the compounds identified in the below table. The table below summarizes the results of the IV pharmacokinetics.

Sprague Dawley rats = test: Porsolt forced swim test; assay type: in vivo; details: 0.1 mg/kg
NMDAR2C = molecular target: T4, NMDAR2C (Homo sapiens, UniProt Q14957); test: NMDAR agonist assay, [3H]MK-801 binding, NMDAR2C expressing HEK cell membranes; assay type: biochemical; details: 50 μM glutamate; for EC50: read-out: NMDAR2C B: log EC50 (converted)
T4 construct: expressed in transfected cells; host or cells: HEK cells (membrane extract)
T4 sequence (Q14957 20-1233, species assumed, other chains not shown): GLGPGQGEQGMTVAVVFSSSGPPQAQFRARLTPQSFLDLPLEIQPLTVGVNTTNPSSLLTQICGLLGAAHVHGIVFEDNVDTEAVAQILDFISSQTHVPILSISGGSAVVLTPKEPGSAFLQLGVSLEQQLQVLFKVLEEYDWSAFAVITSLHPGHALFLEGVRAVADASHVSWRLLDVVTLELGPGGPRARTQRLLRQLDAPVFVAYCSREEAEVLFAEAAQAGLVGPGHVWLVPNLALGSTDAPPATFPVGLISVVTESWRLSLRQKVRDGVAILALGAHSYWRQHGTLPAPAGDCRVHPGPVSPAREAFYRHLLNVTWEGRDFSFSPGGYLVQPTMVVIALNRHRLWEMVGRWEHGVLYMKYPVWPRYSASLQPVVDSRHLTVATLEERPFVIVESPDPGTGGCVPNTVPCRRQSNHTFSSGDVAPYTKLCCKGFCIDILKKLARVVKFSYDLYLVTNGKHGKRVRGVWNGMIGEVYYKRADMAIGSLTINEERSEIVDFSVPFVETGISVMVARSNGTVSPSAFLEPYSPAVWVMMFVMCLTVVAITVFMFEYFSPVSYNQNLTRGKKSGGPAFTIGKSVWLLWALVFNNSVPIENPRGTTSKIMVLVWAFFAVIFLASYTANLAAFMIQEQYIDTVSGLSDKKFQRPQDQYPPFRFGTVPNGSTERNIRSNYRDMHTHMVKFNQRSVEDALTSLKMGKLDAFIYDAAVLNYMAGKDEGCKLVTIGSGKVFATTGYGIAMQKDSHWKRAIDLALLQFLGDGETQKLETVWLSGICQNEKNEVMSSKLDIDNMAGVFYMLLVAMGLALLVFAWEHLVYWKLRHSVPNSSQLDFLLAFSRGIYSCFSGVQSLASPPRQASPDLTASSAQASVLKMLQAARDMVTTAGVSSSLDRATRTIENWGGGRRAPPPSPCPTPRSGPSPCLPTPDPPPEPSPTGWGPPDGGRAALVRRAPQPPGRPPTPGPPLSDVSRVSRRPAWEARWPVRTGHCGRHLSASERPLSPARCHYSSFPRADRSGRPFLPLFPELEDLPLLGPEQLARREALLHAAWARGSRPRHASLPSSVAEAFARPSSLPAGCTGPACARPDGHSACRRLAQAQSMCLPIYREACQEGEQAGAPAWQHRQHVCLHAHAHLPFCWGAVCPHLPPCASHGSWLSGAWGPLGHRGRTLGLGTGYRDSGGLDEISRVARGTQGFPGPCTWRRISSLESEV
Description: as §2, §3, §4, §5

[6] = Oral pharmacokinetics in Sprague Dawley rats (plasma, brain, CSF); assay type: in vivo; details: rat, 10 mg/kg; for Tmax / AUC(0-t) / bioavailability / Cmax: Sprague-Dawley, po, plasma; for Tmax / AUC(0-t) / Cmax / CSF Cmax / Brain Cmax: per os; for Tmax: read-out: Tmax; for bioavailability: per os 10 mg/kg; for Cmax: read-out: Cmax
Description: In another experiment, Sprague Dawley rats were dosed per os (oral gavage) using a normal saline formulation containing 10 mg/kg of the compounds identified in the table below. Plasma, brain, and CSF samples were analyzed at various time points over a 24 hour period. The table below summarizes the results of the oral pharmacokinetics, where the first three values (Tmax, Cmax and AUClast) are plasma values.

NMDAR2B = molecular target: T5, NMDAR2B (Homo sapiens, UniProt Q13224); test: NMDAR agonist assay, [3H]MK-801 binding, NMDAR2B expressing HEK cell membranes; assay type: biochemical; details: 50 μM glutamate; for EC50: read-out: NMDAR2B B: log EC50 (converted)
T5 construct: expressed in transfected cells; host or cells: HEK cells (membrane extract)
T5 sequence (Q13224 27-1484, species assumed, other chains not shown): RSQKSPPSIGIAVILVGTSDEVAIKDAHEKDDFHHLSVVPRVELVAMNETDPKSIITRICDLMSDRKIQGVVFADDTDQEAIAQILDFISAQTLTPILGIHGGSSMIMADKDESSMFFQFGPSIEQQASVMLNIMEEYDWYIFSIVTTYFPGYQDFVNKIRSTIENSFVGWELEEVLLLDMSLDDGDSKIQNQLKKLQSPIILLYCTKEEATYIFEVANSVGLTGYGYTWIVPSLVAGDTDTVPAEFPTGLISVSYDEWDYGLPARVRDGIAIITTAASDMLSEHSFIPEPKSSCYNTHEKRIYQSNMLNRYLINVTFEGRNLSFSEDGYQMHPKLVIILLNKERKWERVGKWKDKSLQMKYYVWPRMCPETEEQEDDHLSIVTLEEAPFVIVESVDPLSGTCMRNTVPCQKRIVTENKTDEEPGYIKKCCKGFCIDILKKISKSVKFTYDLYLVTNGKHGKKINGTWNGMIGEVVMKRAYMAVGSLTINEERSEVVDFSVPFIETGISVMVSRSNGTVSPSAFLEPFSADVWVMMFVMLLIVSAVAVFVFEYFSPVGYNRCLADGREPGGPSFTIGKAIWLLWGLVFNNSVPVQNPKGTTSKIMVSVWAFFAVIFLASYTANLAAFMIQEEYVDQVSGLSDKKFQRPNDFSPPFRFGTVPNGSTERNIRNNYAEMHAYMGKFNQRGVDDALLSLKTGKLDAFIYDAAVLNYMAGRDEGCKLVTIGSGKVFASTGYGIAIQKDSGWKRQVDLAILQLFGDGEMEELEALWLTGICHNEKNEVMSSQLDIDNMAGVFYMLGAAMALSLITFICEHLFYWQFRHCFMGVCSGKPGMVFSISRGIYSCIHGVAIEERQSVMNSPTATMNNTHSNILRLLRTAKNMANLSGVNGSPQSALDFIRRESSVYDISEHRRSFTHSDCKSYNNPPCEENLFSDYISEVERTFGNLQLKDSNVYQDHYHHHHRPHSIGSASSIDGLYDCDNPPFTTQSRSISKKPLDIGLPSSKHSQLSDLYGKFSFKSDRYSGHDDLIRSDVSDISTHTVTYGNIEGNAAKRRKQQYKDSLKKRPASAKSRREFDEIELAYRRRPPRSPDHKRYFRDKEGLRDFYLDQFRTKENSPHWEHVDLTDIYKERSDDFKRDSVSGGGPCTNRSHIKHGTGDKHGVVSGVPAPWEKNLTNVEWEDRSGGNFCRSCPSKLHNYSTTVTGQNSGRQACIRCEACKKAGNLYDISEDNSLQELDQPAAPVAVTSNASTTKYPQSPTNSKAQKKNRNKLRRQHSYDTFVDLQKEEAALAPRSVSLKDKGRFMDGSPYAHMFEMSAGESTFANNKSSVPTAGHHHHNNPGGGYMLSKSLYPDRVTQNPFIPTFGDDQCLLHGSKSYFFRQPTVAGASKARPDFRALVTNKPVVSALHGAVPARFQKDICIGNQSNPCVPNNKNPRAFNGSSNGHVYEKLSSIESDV
In short: as §7

Plasma stability (Rat) = assay type: in vitro ADME; details: after 60 minutes
Description: as §6

SMILES: O=C1NCCCC12CCCN2 (stereo not shown) [EU-2, 1,7-diazaspiro[4.5]decan-6-one]
- Microsomal (Rat): percent of compound remaining [1]: 94%
- Microsomal (Human): percent of compound remaining [2]: 100%
- EC50 (NMDAR2D [3]): < 1 nM
- NMDAR2D A: % maximal [3H]MK-801 binding relative to 1 mM glycine (NMDAR2D [4]): ++ (>100%=++)
- Plasma (Human): percent of compound remaining (Plasma stability (Human)): 74%
- NMDAR2A B: log EC50 (NMDAR2A): −
- AUC(0-t) [5]: 4000 ng·h/mL
- clearance [5]: 8.79 mL/min/kg
- half-life [5]: 96.6 min
- Cmax [5]: 2140 ng/mL
- Vd [5]: 0.94 L/kg
- % reduction in float time (Sprague Dawley rats; 1 wk post-dose): 46%
- Significance vs. vehicle (Sprague Dawley rats; 1 wk post-dose): Yes
- % reduction in float time (Sprague Dawley rats; 1 h post-dose): 55%
- Significance vs. vehicle (Sprague Dawley rats; 1 h post-dose): Yes
- EC50 (NMDAR2C): < 1 nM
- NMDAR2C A: % maximal [3H]MK-801 binding relative to 1 mM glycine (NMDAR2C): + (<100%=+)
- Tmax [6]: 60 min
- AUC(0-t) [6]: 4430 ng·h/mL
- bioavailability [6]: 100%
- Cmax [6]: 1860 ng/mL
- CSF Cmax [6]: 436.7 ng/mL
- Brain Cmax [6]: 593.1 ng/mL
- EC50 (NMDAR2B): < 1 nM
- Plasma (Rat): percent of compound remaining (Plasma stability (Rat)): 95%

SMILES: CC(C)(C)OC(=O)N1CCCC12CCCNC2=O (single isomer, unassigned) [EV-1, tert-butyl 6-oxo-1,7-diazaspiro[4.5]decane-1-carboxylate]
- Microsomal (Rat): percent of compound remaining [1]: 100%
- Microsomal (Human): percent of compound remaining [2]: 95%
- EC50 (NMDAR2D [3]): < 1 nM
- NMDAR2D A: % maximal [3H]MK-801 binding relative to 1 mM glycine (NMDAR2D [4]): + (<100%=+)
- Plasma (Human): percent of compound remaining (Plasma stability (Human)): 98%
- EC50 (NMDAR2A; read-out: NMDAR2A B: log EC50 (converted)): < 1 nM
- Emax (NMDAR2A; 0.25 h, relative to 1 mM glycine, read-out: NMDAR2A A: % maximal [3H]MK-801 binding relative to 1 mM glycine): < 100%
- AUC(0-t) [5]: 1270 ng·h/mL
- clearance [5]: 26.2 mL/min/kg
- half-life [5]: 25.2 min
- Cmax [5]: 2730 ng/mL
- Vd [5]: 0.72 L/kg
- % reduction in float time (Sprague Dawley rats; 1 h post-dose): 53%
- Significance vs. vehicle (Sprague Dawley rats; 1 h post-dose): Yes
- % reduction in float time (Sprague Dawley rats; 24 h post-dose): 45%
- Significance vs. vehicle (Sprague Dawley rats; 24 h post-dose): Yes
- EC50 (NMDAR2C): < 1 nM
- NMDAR2C A: % maximal [3H]MK-801 binding relative to 1 mM glycine (NMDAR2C): + (<100%=+)
- Tmax [6]: 15 min
- AUC(0-t) [6]: 2850 ng·h/mL
- bioavailability [6]: 45%
- Cmax [6]: 3690 ng/mL
- CSF Cmax [6]: 1414.8 ng/mL
- Brain Cmax [6]: 1457.4 ng/mL
- EC50 (NMDAR2B): < 1 nM
- Emax (NMDAR2B; relative to 1 mM glycine, read-out: NMDAR2B A: % maximal [3H]MK-801 binding relative to 1 mM glycine): < 100%
- Plasma (Rat): percent of compound remaining (Plasma stability (Rat)): 94%
